Series [1] has as its target T1, human Y5 receptor (Homo sapiens, UniProt Q15761).
T1 sequence (Q15761 1-445): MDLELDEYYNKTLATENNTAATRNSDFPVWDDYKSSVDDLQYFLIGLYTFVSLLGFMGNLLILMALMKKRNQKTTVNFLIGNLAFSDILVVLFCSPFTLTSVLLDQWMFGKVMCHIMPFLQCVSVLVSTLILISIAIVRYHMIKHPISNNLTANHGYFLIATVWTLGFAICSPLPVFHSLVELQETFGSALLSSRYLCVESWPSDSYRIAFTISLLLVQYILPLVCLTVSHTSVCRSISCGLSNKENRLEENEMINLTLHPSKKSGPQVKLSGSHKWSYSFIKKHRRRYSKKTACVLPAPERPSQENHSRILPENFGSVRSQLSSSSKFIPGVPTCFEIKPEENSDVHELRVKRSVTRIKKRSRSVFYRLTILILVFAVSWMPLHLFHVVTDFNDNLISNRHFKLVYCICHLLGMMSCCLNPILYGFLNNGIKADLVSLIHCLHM
As to the kind of experiment: NPY receptor functional assay (cAMP, HEK-CNG cells, ACTOne membrane potential dye). In kind it is cell-based. The settings on record: NPY5R pEC50, HEK-CNG cells; standard NPY; species (human or rat) not given. An outline of the steps:
(§1)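 HEK-CNG cells stably expressing each human receptor; peptides added in triplicate for 50 minutes at room temperature, with agonism read as decreased isoproterenol-induced membrane potential dye signal (final/initial read).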

Series [2] concerns the target T2, human Y1 receptor (Homo sapiens, UniProt P25929).
T2 sequence (P25929 1-384): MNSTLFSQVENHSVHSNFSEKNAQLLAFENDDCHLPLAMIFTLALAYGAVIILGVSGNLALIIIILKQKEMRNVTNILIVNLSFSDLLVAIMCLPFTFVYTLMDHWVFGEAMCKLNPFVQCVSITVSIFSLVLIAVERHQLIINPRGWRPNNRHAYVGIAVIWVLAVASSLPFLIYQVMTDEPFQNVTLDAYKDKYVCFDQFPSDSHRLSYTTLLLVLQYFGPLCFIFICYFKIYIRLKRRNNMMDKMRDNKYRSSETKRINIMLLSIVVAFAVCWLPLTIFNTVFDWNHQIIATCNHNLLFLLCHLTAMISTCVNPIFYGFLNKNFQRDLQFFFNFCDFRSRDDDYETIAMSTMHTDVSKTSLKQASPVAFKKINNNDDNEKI
The description is as above. In kind it is cell-based. From the text:
The NPY family of G-protein coupled receptors include Y1, Y2, Y4, and Y5 in humans and rats. […] Following agonist binding, the receptor-G protein complex activates a downstream intracellular signaling cascade which leads to inhibition of adenylate cyclase and a reduction in intracellular cAMP levels.
HEK-CNG cells stably expressing the human or rat Y1, Y2, Y4 or Y5 receptors (Codex Biosolutions) were used to characterize the functional potency of peptide agonists using the ActOne™ membrane potential dye kit (Codex Biosolutions). In addition to each NPY receptor, each cell line encodes a proprietary exogenous Cyclic Nucleotide-Gated (CNG) channel (Codex Biosolutions). The channel is activated by elevated intracellular levels of cAMP, resulting in ion flux and cell membrane depolarization which can be detected with a calcium sensitive dye or fluorescent membrane potential (MP) dye. Cells were carried in growth media containing 90% DMEM, 10% FBS, 250 mcg/mL G418 and 1 mcg/mL puromycin for no more than 15 passages.
Prior to testing, cells were counted and dispensed at 14,000 cells per well (Y1, Y4 and Y5) or 28,000 cells per well (Y2) into black 384 well Poly-D-Lysine plates at 20 mcL per well. Covered plates were then incubated at room temperature for 30 minutes followed by an overnight incubation at 37° C. in 5% C02. The following day, media was removed and wells were washed once with 40 mcL Dulbecco's phosphate buffered saline. […] Ten microliters of experimental peptide or peptide standard was added in triplicate to wells and incubated for 50 minutes at room temperature in the dark. Following this incubation step, plates were read again as before (final read).
NPY receptor activation, leading to a reduction in intracellular cAMP levels, is detected as a decrease in isoproteranol induced fluorescent signal. Peptide standard and experimental values were initially transformed in excel using the formula: final read/initial read. […] Normalized data was analyzed from triplicate tests and used to estimate the EC50 for each test peptide on each receptor. Data was fit in GraphPad Prism software (v8.2.1) using a 3-parameter logistic curve model: Y=Bottom+(Top−Bottom)/(1+10^((LogEC50−X))). EC50 values were converted to pEC50 values using the formula: pEC50=−Log(EC50).

Series [3] has as its target T3, human Y2 receptor (Homo sapiens, UniProt P49146).
T3 sequence (P49146 1-381): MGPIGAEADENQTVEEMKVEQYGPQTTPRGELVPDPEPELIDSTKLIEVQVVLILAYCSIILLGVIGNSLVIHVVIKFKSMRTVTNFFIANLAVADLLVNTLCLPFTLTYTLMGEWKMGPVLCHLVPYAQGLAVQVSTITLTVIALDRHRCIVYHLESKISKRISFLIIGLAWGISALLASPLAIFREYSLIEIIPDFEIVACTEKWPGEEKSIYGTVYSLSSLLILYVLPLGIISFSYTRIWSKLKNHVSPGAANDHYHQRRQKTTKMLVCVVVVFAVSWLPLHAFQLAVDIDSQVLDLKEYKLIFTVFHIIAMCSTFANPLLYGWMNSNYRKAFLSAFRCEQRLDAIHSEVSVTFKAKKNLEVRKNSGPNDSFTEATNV
The series is described as above. In kind it is cell-based. The settings on record: NPY2R pEC50, HEK-CNG cells; standard PYY(3-36); species (human or rat) not given. The method, boiled down:
as §1

The nature of series [4]: In vitro stability in subcutaneous (SC) tissue homogenates. In kind it is in vitro ADME. Conditions: subcutaneous tissue homogenate, pH 7.4; human SC tissue homogenate 1.0 mg protein/mL, 10 mcM peptide, 37° C.; read-out: (H)SC tissue stability t½ (converted). On the procedure: In vitro incubations in subcutaneous (SC) tissue homogenates were used to characterize the ability of peptides to resist pre-systemic degradation by proteases and peptidases after SC administration. […] Peptides with high SC bioavailability are stable in this assay, while peptides with low SC bioavailability are unstable in this assay.
Human SC tissue was homogenized in cold 25 mM HEPES buffer (pH 7.4, 10-fold volume based on sample weight), and then filtered through a double layer of cheesecloth. The filtrates were aliquoted, flash frozen on a methanol/dry ice bath and stored at −80° C. The protein concentration of each pooled batch was determined using the BCA protein assay. Thawed stocks of human SC tissue homogenates were diluted to 1.0 mg protein/mL in 25 mM HEPES buffer (pH 7.4) and aliquoted into a 96-well plate. The diluted SC homogenates were pre-warmed for 10 minutes at 37° C. […] Reactions were maintained at 37° C. in a shaking water bath. […] Quenched samples were centrifuged at 2178×g for 10 min and then a portion of the supernatants were transferred to a clean 96-well plate and diluted 1:10 with water. Samples were analyzed by UPLC-MS/MS.

Series [5] can be described thus: In vitro metabolic stability in kidney brush border membranes (kBBM). In kind it is in vitro ADME. The settings on record: pH 7.4, human kBBM 50 mcg protein/mL, 1 mcM peptide, 37° C., read-out: hkBBM t½ (converted). How it is done:
In vitro incubations in kidney brush border membrane (kBBM) preparations were used to characterize the ability of peptides to resist degradation by proteases and peptidases in the systemic circulation. kBBM were selected because they contain a high concentration of a diverse set of proteases and peptidases, many of which are present throughout the body.
Brush border membranes from rat and human kidney tissue were prepared via centrifugation and stored at −70° C. Thawed stocks of rat or human kBBM were diluted to the appropriate concentration in 25 mM HEPES buffer (pH 7.4) containing 1% casein and aliquoted into a 96-well plate. The kBBM solutions were pre-warmed for 10 minutes at 37° C. […] The final concentration of kBBM in each incubation was 50 mcg protein/mL. Reactions were maintained at 37° C. in a shaking water bath. […] Quenched samples were centrifuged at 2178×g for 10 min and then a portion of the supernatants were transferred to a clean 96-well plate and diluted 1:1 with water. Samples were analyzed by UPLC-MS/MS.

Starred links: 1 amine or outer side, 2 acyl side, 3 side chain; linkers in the order of their positions; H or OH if unused. Residues, ends and D or L forms follow the SMILES beside them. Groups on a side chain read outwards from the residue. *: point of attachment. C20 diacid = O=C(O)CCCCCCCCCCCCCCCCCCC(=O)*; γGlu = O=C(O)[C@H](CCC(=O)[*:2])N[*:1]

As a reminder, the EC50 is the concentration needed to bring the measured effect to its halfway point. A higher EC50 goes with weaker potency. As for `CC(C)C[C@H](NC(=O)[C@H](CC(=O)O)NC(=O)[C@H](CCCCN)NC(=O)[C@H](Cc1ccc(O)cc1)NC(=O)[C@H](Cc1ccc(O)cc1)NC(=O)[C@H](CCCNC(=N)N)NC(=O)[C@H](CC(N)=O)NC(=O)[C@H](Cc1c[nH]c2ccccc12)NC(=O)[C@H](CCC(=O)O)NC(=O)[C@H](CCCCN)NC(=O)[C@@H]1CCCN1C(=O)[C@H](CO)NC(=O)[C@H](C)NC(=O)[C@H](CC(=O)O)NC(=O)[C@H](CCC(=O)O)NC(=O)CNC(=O)[C@@H]1CCCN1C(=O)[C@H](CCCCNC(=O)CC[C@H](NC(=O)CC[C@H](NC(=O)CCCCCCCCCCCCCCCCC(=O)O)C(=O)O)C(=O)O)NC(=O)[C@H](CCC(=O)O)NC(=O)[C@@H]1CCCN1C(=O)[C@H](CCCCN)NC(=O)[C@@H]1CCCN1)C(=O)N[C@@H](CCCNC(=N)N)C(=O)N[C@@H](Cc1c[nH]cn1)C(=O)N[C@@H](Cc1ccc(O)cc1)C(=O)N[C@@H](CC(C)C)C(=O)N[C@@H](CC(N)=O)C(=O)N[C@@H](Cc1c[nH]c2ccccc12)C(=O)N[C@@H](CC(C)C)C(=O)N[C@H](C(=O)N[C@@H](CCCNC(=N)N)C(=O)N[C@@H](CCC(N)=O)C(=O)N[C@@H](CCCNC(=N)N)C(=O)N[C@@H](Cc1ccccc1)C(N)=O)[C@@H](C)O` [Compound A38], the EC50 in series [1] is 3.98 nM; in series [2], 2.51 nM.

On to `CC(C)C[C@H](NC(=O)[C@H](CC(=O)O)NC(=O)[C@H](CCCCN)NC(=O)[C@H](Cc1ccc(O)cc1)NC(=O)[C@H](Cc1ccc(O)cc1)NC(=O)[C@H](CCCNC(=N)N)NC(=O)[C@H](CC(N)=O)NC(=O)[C@H](Cc1c[nH]c2ccccc12)NC(=O)[C@H](CCC(=O)O)NC(=O)[C@H](CCCCN)NC(=O)[C@@H]1CCCN1C(=O)[C@H](CO)NC(=O)[C@H](C)NC(=O)[C@H](CC(=O)O)NC(=O)[C@H](CCCCNC(=O)CC[C@H](NC(=O)CC[C@H](NC(=O)CCCCCCCCCCCCCCCCCCC(=O)O)C(=O)O)C(=O)O)NC(=O)CNC(=O)[C@@H]1CCCN1C(=O)[C@H](CCCCN)NC(=O)[C@H](CCC(=O)O)NC(=O)[C@@H]1CCCN1C(=O)[C@H](CCCCN)NC(=O)[C@@H]1CCCN1)C(=O)N[C@@H](CCCNC(=N)N)C(=O)N[C@@H](Cc1c[nH]cn1)C(=O)N[C@@H](Cc1ccc(O)cc1)C(=O)N[C@@H](CC(C)C)C(=O)N[C@@H](CC(N)=O)C(=O)N[C@@H](Cc1c[nH]c2ccccc12)C(=O)N[C@@H](CC(C)C)C(=O)N[C@H](C(=O)N[C@@H](CCCNC(=N)N)C(=O)N[C@@H](CCC(N)=O)C(=O)N[C@@H](CCCNC(=N)N)C(=O)N[C@@H](Cc1ccccc1)C(N)=O)[C@@H](C)O` [Compound A27] (H-PKPEKPGK([γGlu-γGlu-C20 diacid])DASPKEWNRYYKDLRHYLNWLTRQRF-NH2; N-terminus assumed), for which the values for the EC50 in series [3] and in series [1] were 0.02 nM and 1.26 nM, respectively. The half-life at 10 mcM in series [4] was 0.2 h. Further, the half-life at 1 mcM in series [5] is 10 h.

In the case of `CC(C)C[C@H](NC(=O)[C@H](CC(=O)O)NC(=O)[C@H](CCCCN)NC(=O)[C@H](Cc1ccc(O)cc1)NC(=O)[C@H](Cc1ccc(O)cc1)NC(=O)[C@H](CCCNC(=N)N)NC(=O)[C@H](CC(N)=O)NC(=O)[C@H](Cc1c[nH]c2ccccc12)NC(=O)[C@H](CCC(=O)O)NC(=O)[C@H](CCCCN)NC(=O)[C@@H]1CCCN1C(=O)[C@H](CO)NC(=O)[C@H](C)NC(=O)[C@H](CC(=O)O)NC(=O)[C@H](CCC(=O)O)NC(=O)CNC(=O)[C@@H]1CCCN1C(=O)[C@H](CCCCNC(=O)CC[C@H](NC(=O)CC[C@H](NC(=O)CCCCCCCCCCCCCCCCCCC(=O)O)C(=O)O)C(=O)O)NC(=O)[C@H](CCC(=O)O)NC(=O)[C@@H]1CCCN1C(=O)[C@H](CCCCN)NC(=O)[C@@H]1CCCN1)C(=O)N[C@@H](CCCNC(=N)N)C(=O)N[C@@H](Cc1c[nH]cn1)C(=O)N[C@@H](Cc1ccc(O)cc1)C(=O)N[C@@H](CC(C)C)C(=O)N[C@@H](CC(N)=O)C(=O)N[C@@H](Cc1c[nH]c2ccccc12)C(=O)N[C@@H](CC(C)C)C(=O)N[C@H](C(=O)N[C@@H](CCCNC(=N)N)C(=O)N[C@@H](CCC(N)=O)C(=O)N[C@@H](CCCNC(=N)N)C(=O)N[C@@H](Cc1ccccc1)C(N)=O)[C@@H](C)O` [Compound A72], the figures for the EC50 in series [3], in series [1] and in series [2] were 0.0158 nM, 1.58 nM and 1 nM, respectively.

For the origin of these results see patent publication US12122816B2, “Long acting peptide tyrosine tyrosine (PYY) analogs and methods of use” (Intarcia Therapeutics, Inc., priority 2020, dated 2024).
